Data on 16 molecules can be found in PubChem BioAssay (NCI).

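Grown in 96-well plates, cells were treated for 48 hours with each compound at five concentrations. Insufficient inhibition: endpoint recorded as highest concentration tested. The concentration for 50% growth inhibition is given as GI50. TGI marks complete inhibition of growth.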

Test systems include OVCAR-3 ovarian; KM20L2 colon; HT29 colon; SW-620 colon; DLD-1 colon; UACC-62 melanoma; HOP-62 NSCLC; U251 CNS; ACHN renal; NCI-H23 lung.
What all share (assay): growth of human tumour cells (NCI), 48 h

Take `C[N+]1=c2c3cccc4cccc(c(=O)n2CC1)c43`: the TGI was 79.8 µM in the assay with OVCAR-3 ovarian; 43.3 µM in the assay with KM20L2 colon; 64.4 µM with HT29 colon; more than 100 µM with SW-620 colon; 44 µM in the assay on DLD-1 colon; 31.5 µM in the assay on UACC-62 melanoma. Moreover, the TGI in the assay on HOP-62 NSCLC was 53.1 µM; in the assay with U251 CNS it was 85.8 µM; in the assay on ACHN renal, more than 100 µM; with NCI-H23 lung, 32.3 µM.

On to `N#C/C(=C1\SCC(=O)N1c1ccccc1)c1nc2ccccc2[nH]1`, for which the TGI in the assay with OVCAR-3 ovarian, with KM20L2 colon, in the assay with HT29 colon, in the assay with SW-620 colon, in the assay with DLD-1 colon and with UACC-62 melanoma was more than 100 µM in each case. In addition, the TGI in the assay on HOP-62 NSCLC, with U251 CNS, in the assay on ACHN renal and in the assay on NCI-H23 lung was more than 100 µM each time.

In the case of `C=CC(=O)N1C/C(=C\c2ccc(Cl)c(Cl)c2)C(=O)/C(=C/c2ccc(Cl)c(Cl)c2)C1`, the TGI with OVCAR-3 ovarian was determined as 0.219 µM; in the assay on KM20L2 colon, 0.545 µM; in the assay on HT29 colon it was 0.323 µM; in the assay with SW-620 colon it was 0.262 µM; in the assay on DLD-1 colon, 0.154 µM; with UACC-62 melanoma, 0.687 µM. In addition, the TGI in the assay with HOP-62 NSCLC was found to be 0.607 µM; in the assay on U251 CNS, 0.0724 µM; with ACHN renal, 0.343 µM; with NCI-H23 lung, 0.438 µM.

`COc1cc(CNc2nc3c(N)cc(C(F)(F)F)cc3nc2-c2ccccc2)cc(OC)c1OC`: the TGI with OVCAR-3 ovarian, with KM20L2 colon, in the assay on HT29 colon, in the assay on SW-620 colon, with DLD-1 colon and in the assay with UACC-62 melanoma was more than 100 µM in each case. The TGI in the assay with HOP-62 NSCLC, in the assay on U251 CNS, in the assay on ACHN renal and in the assay on NCI-H23 lung was more than 100 µM throughout.

In the case of `C#CC1(O)CCC2C3CCc4cc(Oc5nc(F)nc(-c6c7ccccc7c7n6CCS7)n5)ccc4C3CC[C@@]21C` (some centres not stated), the TGI with OVCAR-3 ovarian is 32.2 µM; in the assay with KM20L2 colon, more than 100 µM; in the assay with HT29 colon, 73.7 µM; in the assay on SW-620 colon, more than 100 µM; in the assay on DLD-1 colon, more than 100 µM; in the assay with UACC-62 melanoma, 86.2 µM. In addition, the TGI in the assay on HOP-62 NSCLC is 36.1 µM; with U251 CNS, 40.7 µM; in the assay with ACHN renal it was more than 100 µM; with NCI-H23 lung it was 42.7 µM.

In the case of `CC(C)/C=C1\CCC(CN2CCOCC2)C1=O` (configuration not stated), the TGI was determined as 32.7 µM with OVCAR-3 ovarian; 38.2 µM with KM20L2 colon; 15.4 µM in the assay with HT29 colon; 8.08 µM in the assay with SW-620 colon; 8.86 µM in the assay on DLD-1 colon; 36.3 µM with UACC-62 melanoma. Besides, the TGI was more than 100 µM with HOP-62 NSCLC, more than 56.4 µM with U251 CNS, 32.3 µM in the assay with ACHN renal and 33.9 µM in the assay with NCI-H23 lung.

Take `CC(C)N(C(=O)c1cccc(C(=O)N(C(C)C)C(C)C)c1)C(C)C`: the TGI in the assay on OVCAR-3 ovarian, with KM20L2 colon, with HT29 colon, in the assay with SW-620 colon, with DLD-1 colon and with UACC-62 melanoma was more than 100 µM throughout. For the same molecule, the TGI in the assay on HOP-62 NSCLC, in the assay on U251 CNS, with ACHN renal and with NCI-H23 lung was more than 100 µM each time.

Regarding `COC(=O)CCC(NC(=S)N/N=C(\C)c1ccc[nH]1)C(=O)OC` (configuration not stated), the TGI in the assay with OVCAR-3 ovarian, in the assay with KM20L2 colon, in the assay with HT29 colon, in the assay on SW-620 colon, in the assay with DLD-1 colon and with UACC-62 melanoma was more than 100 µM throughout. For the same molecule, the TGI with HOP-62 NSCLC, in the assay with U251 CNS, with ACHN renal and in the assay on NCI-H23 lung was more than 100 µM throughout.

In the case of `CCC[CH2][Sn]([CH2]CCC)([O]C(=O)c1cc(OC)c(OC)cc1OC)[O][Sn]([CH2]CCC)([CH2]CCC)[O]C(=O)c1cc(OC)c(OC)cc1OC`, the GI50 is 0.798 µM in the assay with OVCAR-3 ovarian; 1.21 µM in the assay on KM20L2 colon; 1.22 µM with HT29 colon; 0.182 µM in the assay with SW-620 colon; 0.253 µM with DLD-1 colon; 0.251 µM in the assay with UACC-62 melanoma. Further, the GI50 in the assay with HOP-62 NSCLC was 2.11 µM; in the assay on U251 CNS it was 1.17 µM; in the assay with ACHN renal, 0.339 µM; with NCI-H23 lung, 0.313 µM. In addition, the TGI stood at 2.07 µM with OVCAR-3 ovarian; 2.56 µM in the assay on KM20L2 colon; 2.82 µM in the assay with HT29 colon; 0.536 µM in the assay with SW-620 colon; 1.34 µM in the assay on DLD-1 colon; 0.715 µM with UACC-62 melanoma. Also, the TGI in the assay with HOP-62 NSCLC was determined as 3.67 µM; in the assay on U251 CNS it was 2.41 µM; in the assay on ACHN renal, 1.17 µM; with NCI-H23 lung it was 1.19 µM.

For `COc1cc(/C=C/c2ccc(C)cc2)cc(OC)c1OC`, the TGI in the assay with OVCAR-3 ovarian was 6.93 µM; in the assay with KM20L2 colon it was 4.69 µM; with HT29 colon, 9.45 µM; in the assay with SW-620 colon it was more than 68.6 µM; with DLD-1 colon, 20.7 µM; in the assay on UACC-62 melanoma, 15.6 µM. Further, the TGI with HOP-62 NSCLC is 16.3 µM; in the assay on U251 CNS, 23.9 µM; with ACHN renal it was 35.5 µM; with NCI-H23 lung, 9.16 µM.

Turning to `C/C(CC(=O)NCCc1ccccc1)=N\NS(=O)(=O)c1ccc(C)cc1`, the TGI in the assay on OVCAR-3 ovarian, in the assay on KM20L2 colon, in the assay with HT29 colon, in the assay with SW-620 colon, in the assay on DLD-1 colon and in the assay on UACC-62 melanoma was more than 100 µM in each case. Besides, the TGI in the assay on HOP-62 NSCLC, in the assay with U251 CNS, with ACHN renal and in the assay on NCI-H23 lung was more than 100 µM throughout.

As to `O=C(/C=C(\O)C(=O)O)/C=C(\O)c1ccccc1`, the GI50 with OVCAR-3 ovarian, in the assay with KM20L2 colon, in the assay on HT29 colon, with UACC-62 melanoma, in the assay with HOP-62 NSCLC and in the assay with U251 CNS was more than 1 µM each time. The GI50 in the assay with ACHN renal is more than 1 µM; with NCI-H23 lung, more than 100 µM. The TGI is more than 46.4 µM with OVCAR-3 ovarian; more than 100 µM in the assay on KM20L2 colon; more than 100 µM in the assay with HT29 colon; more than 100 µM in the assay with SW-620 colon; more than 100 µM in the assay with DLD-1 colon; more than 100 µM in the assay on UACC-62 melanoma. The TGI was more than 76.2 µM with HOP-62 NSCLC, more than 100 µM in the assay with U251 CNS, more than 100 µM in the assay on ACHN renal and more than 100 µM in the assay on NCI-H23 lung.

As to `O=S(=O)(O)O`, the TGI in the assay with OVCAR-3 ovarian was 1770 µM; in the assay with KM20L2 colon, 2280 µM; in the assay with HT29 colon, 1450 µM; in the assay with SW-620 colon it was 1030 µM; in the assay with DLD-1 colon it was more than 3000 µM; in the assay on UACC-62 melanoma, 1940 µM. Further, the TGI is 1070 µM with HOP-62 NSCLC, 1480 µM with U251 CNS, 1550 µM in the assay on ACHN renal and 1580 µM with NCI-H23 lung.

`Cc1cc2c(c(C(N)=O)c1C)-c1cccc(F)c1C2=O`: the TGI in the assay on OVCAR-3 ovarian, in the assay on KM20L2 colon, in the assay with HT29 colon, in the assay on SW-620 colon, in the assay with DLD-1 colon and in the assay with UACC-62 melanoma was more than 100 µM each time. In addition, the TGI in the assay with HOP-62 NSCLC, in the assay with U251 CNS, in the assay with ACHN renal and with NCI-H23 lung was more than 100 µM each time.

For `COc1ccccc1N=Nc1c(-c2ccccc2)nn(C(=O)CC(=O)Nc2cccc(C)c2)c1-c1ccccc1`, the TGI in the assay on OVCAR-3 ovarian is 53.9 µM; in the assay on KM20L2 colon, 88.1 µM; with HT29 colon, 33.3 µM; with SW-620 colon, more than 100 µM; in the assay on DLD-1 colon it was more than 100 µM; in the assay with UACC-62 melanoma it was more than 100 µM. In addition, the TGI in the assay on HOP-62 NSCLC, in the assay on U251 CNS, in the assay with ACHN renal and with NCI-H23 lung was more than 100 µM in each case.

On to `O=c1cccccc1[O-].O=c1cccccc1[O-].O=c1cccccc1[O-].[Eu+3]`, for which the TGI was 48.1 µM in the assay with OVCAR-3 ovarian; more than 100 µM with KM20L2 colon; more than 100 µM with HT29 colon; more than 100 µM with SW-620 colon; more than 100 µM with DLD-1 colon; more than 100 µM with UACC-62 melanoma. Moreover, the TGI in the assay on HOP-62 NSCLC was 90.2 µM; in the assay on U251 CNS, more than 100 µM; in the assay on ACHN renal, more than 100 µM; with NCI-H23 lung, more than 100 µM. Besides, the GI50 was 27.2 µM with KM20L2 colon, 24 µM with DLD-1 colon, 24.9 µM in the assay with HOP-62 NSCLC and 26.9 µM in the assay with U251 CNS.
